# Experimental data: patent US20260344662A1, “METHOD FOR INDUCING HIGH-TEMPERATURE STRESS TOLERANCE IN PLANTS” (AJINOMOTO CO., INC., priority 2023, published 2026)
# What was measured:
# [1] = tested on: SLAPX; assay: Example 3: expression of heat stress tolerance-related gene SLAPX (real-time PCR); assay type: in vivo, tomato (cultivar: Regina); conditions: 5 mM Val; 10 μM IAA; 50 μM PAA; combinations 5 mM Val + 10 μM IAA, 5 mM Val + 50 μM PAA; 24 hours after spraying; n=3; relative to Actin
# Method: (§1) Plants of tomato (cultivar: Regina) were used in evaluation of the genes.
# (§2) Two tomato seeds were sown in a slit pot having a diameter of 10.5 cm (10.5 cm (top diameter)×8.8 cm (height)) filled with potting soil, and cultivated in a biotron at a temperature of 23 °C, with a light period of 14 hours (6:00 to 20:00) and a dark period of 10 hours (20:00 to 6:00). As the potting soil, a mixture of Kumiai Nippi Engei Baido No. 1 (Nihon Hiryo Co., Ltd.) and vermiculite at 3:1 (volume ratio) was used. After one week, thinning was performed to leave one plant, and cultivation was continued.
# (§3) The material was dissolved in water before use. Twenty-five days after the sowing, 0.1% spreading agent “Approach BI” (Kao Corporation) was added to the material treatment solution, and the resulting solution was sprayed over the entire plant. For each treatment group, three tomato plants were used, and 2 mL of the treatment solution per plant was sprayed. Twenty-four hours after the spraying, a 1.5 cm×1.5 cm section was collected as a sample from the second true leaf.
# (§4) From each leaf sample collected from tomato, RNA was extracted using a Maxwell™ RSC Plant RNA Kit (Promega) according to the manufacturer's instructions. Subsequently, single-stranded cDNA was synthesized from the extracted RNA using a ReverTra Ace™ qPCR RT Master Mix (TOYOBO). As genes associated with heat stress tolerance in tomato, the following two genes were evaluated: Heat shock factor A2 (HsFA2) and Ascorbate peroxidases (APX). Using the above cDNA as a template, real-time PCR was performed using the primers shown in Table 6, and the expression level of each gene was calculated as a relative expression level with respect to the Actin gene.
# [2] = tested on: SLHsFA2; assay: Example 3: expression of heat stress tolerance-related gene SLHsFA2 (real-time PCR); assay type: in vivo, tomato (cultivar: Regina); conditions: 5 mM Val; 10 μM IAA; 50 μM PAA; combinations 5 mM Val + 10 μM IAA, 5 mM Val + 50 μM PAA; 24 hours after spraying; n=3; relative to Actin
# Method: as §1, §2, §3, §4
# [3] = tested on: plant male sterility caused by high temperatures; conditions: in vivo; cited from earlier work
# [4] = tested on: tomato; assay: Example 1: heat stress tolerance of tomato (number of fruits) with Val and/or IAA; assay type: in vivo, cultivar Regina; conditions: heat stress max 35 °C; foliar spray; Val 5 mM or 10 mM; IAA 10 μM; Val 5 mM & IAA 10 μM
# Method: In the present Example, Val (valine) and IAA (indole-3-acetic acid) were applied to tomato either alone or in combination, and heat stress tolerance-inducing effects were evaluated.
# • Tomato: cultivar Regina
# Two tomato seeds were sown in a pot (Sakata) having a soil diameter of 10.5 cm and containing 350 g of a mixed soil of potting soil (Kumiai No. 1) and vermiculite (potting soil:vermiculite=3:1 (v:v)). Two weeks later, the tomato plants were thinned to leave one plant. Thirty-five days after the sowing, soil fertilization was performed with 100 mL of a 500-fold diluted Hyponex solution. Water supplementation was performed as appropriate.
# The non-heat stress treatment+water treatment group (No. 1) was used as a positive control. The heat stress treatment groups included five treatment groups (Nos. 2 to 6). The material treatment and the heat treatment were performed in two separate sets. The first set of material treatment was performed 40 days after the sowing, when flowering of the tomato plants had started. The second set of material treatment was performed 46 days after the sowing. The material treatment was performed by preparing an aqueous material solution containing 0.1% spreading agent “Approach BI”, and performing foliar spraying. To each tomato plant, 6 mL of the aqueous material solution was sprayed. […]
# [5] = tested on: tomato; assay: Example 4: tomato pot test, harvested fruit weight under heat stress; assay type: in vivo, tomato: Home Momotaro, rootstock (Boranchi); conditions: PAA 10 μM, Val 5 mM, PAA higher than Val
# Method: • Tomato: Home Momotaro, rootstock (Boranchi).
# Sandy loam (SL) was filled into a planter at 0.18 m^2/planter, and two tomato plants were planted therein. As a fertilizer, OK-F-1 (OAT Agrio Co., Ltd.) was used. The fertilizer was diluted 2000-fold with water, and applied as appropriate at 2000 mL/plant/application. Topping was performed with one leaf left above the fourth truss, and axillary buds were removed as appropriate. Cultivation was performed in a glasshouse under natural light.
# Five treatment groups were evaluated (Table 7). The water-treated non-heat stress treatment group was used as a positive control. The other four treatment groups were subjected to heat treatment. The heat treatment was performed twice. The first treatment was performed for 10 days at the pre-flowering stage of the first truss, and the second treatment was performed for 10 days at the flowering stage of the fourth truss. The heat treatment was performed by opening and closing side windows and roof windows of the glasshouse (with a target maximum temperature of 35 °C in the glasshouse).
# The material was applied by spraying onto stems and leaves at 50 mL per plant on the start day of the heat treatment and three days thereafter. To each material, a spreading agent (Approach BI (Kao)) was added to a final concentration of 0.05%.
# Harvesting and examination were performed 11 times until the fourth truss matured. […]
# [6] = tested on: tomato; assay: Example 2: heat stress tolerance of tomato (number and weight of fruits) with Val and/or PAA; assay type: in vivo, cultivar Regina; conditions: Val 5 mM, PAA 10 μM
# Method: In the present Example, Val (valine) and PAA (phenylacetic acid) were applied to tomato plants individually or in combination, and their heat stress tolerance-inducing effects were evaluated.
# Same as in Example 1, except that the five treatment groups shown in Table 3 were evaluated under the cultivation conditions shown in Table 4 (the maximum high temperature was 37 °C).
# [7] = tested on: rice; assay: Example 5: rice pot test, seed weight and seed fertility under heat stress; assay type: in vivo, cultivar Nipponbare; conditions: PAA 10 μM; for fertile seed weight compared to water treatment (in words) / seed fertility compared to water treatment (in words) / total seed weight compared to water treatment (in words) / Fertile seed weight, relative value to heat treatment + water treatment group / Fertility (seed fertility), relative value to heat treatment + water treatment group / Total seed weight, relative value to heat treatment + water treatment group: Val 5 mM; for Fertile seed weight, relative value to heat treatment + water treatment group / Fertility (seed fertility), relative value to heat treatment + water treatment group / Total seed weight, relative value to heat treatment + water treatment group: heat treatment (38 °C), water = 100%
# Method: • Rice cultivar: Nipponbare
# Prior to sowing, rice seeds were sterilized with 25% antiformin and 70% ethanol. Filter paper was placed in a Petri dish, and rice seeds were placed on the filter paper. The filter paper was sufficiently wetted with sterile water, and the rice seeds were germinated in a dark place at 25 °C. Six days after the sowing, the germinated rice seeds were planted in a cell tray. As the potting soil in the cell tray, a mixed soil of Kumiai Baido No. 1: vermiculite=7:3 (v/v) was used. The rice plants planted in the cell tray were cultivated in a chamber under the following conditions: 14 h/light period at 28 °C and 10 h/dark period at 22 °C.
# On June 20, rice seedlings cultivated in the chamber for 18 days were transplanted to magnet pots, and cultivated until harvest in an outdoor cultivation water tank apparatus. In the magnet pots, 2.3 kg of a potting soil of Kumiai Baido No. 1: vermiculite=7:3 (v/v) was used, and two rice seedlings were transplanted to each pot. During the cultivation, water was appropriately managed. From one month after the transplantation, additional fertilizer was applied with ammonium sulfate and Hyponex three times at intervals of one week.
# At the heading stage, one week after the start of heading of rice, material spraying and heat treatment were each performed twice at intervals of one week. The heat treatment was performed about 16 hours after the spraying of a material. Five pots were included in each treatment group as replicates. The material was diluted with water to prepare a treatment solution, and 0.1% spreading agent “Approach BI” (Kao Corporation) was added to the treatment solution, followed by spraying 60 mL per pot of the prepared aqueous material solution onto the whole plants. For the heat treatment, the rice plants were placed in a mini-house for 6 hours from 10:00 to 16:00, and the temperature was about 37 °C to 39 °C. After completion of the heat treatment, the plants were further cultivated, and on October 8, […] after transplanting to Wagner pots, an aboveground part of each plant was cut and harvested.
# The cut aboveground parts of the plants, including seeds, were dried for 15 days, and the total seed weight, the fertile seed weight, and the seed fertility were examined. The fertile seed weight is the weight of seeds obtained by removing sterile seeds of empty husks using a threshing machine. From the total seeds, 10 mL of seeds (about 100 to 150 grains) was randomly taken out into a 50-mL Falcon tube, and fertile seeds and sterile seeds were separated from each other, followed by counting their numbers. The proportion (percentage) of the fertile seeds to the total number of seeds was defined as the seed fertility.
# [8] = tested on: plants; conditions: in vivo; cited from earlier work
structure (smiles),measurement,setting,value
"O=C(O)Cc1c[nH]c2ccccc12 [IAA, indole-3-acetic acid]",expression of SLAPX compared to Mock (water),[1],no difference in expression
same,expression of SLHsfA2 compared to Mock (water),[2],no difference in expression
same,reversal of plant male sterility caused by high temperatures,[3],function of reversing plant male sterility caused by high temperatures
same,number of tomato fruits compared to heat stress treatment+water treatment group,[4],markedly increased
"O=C(O)Cc1ccccc1 [PAA, phenylacetic acid]",expression of SLAPX compared to Mock (water),[1],no difference in expression
same,harvested fruit weight compared to water-sprayed heat stress group,[5],exceeded the water-sprayed group
same,number of tomato fruits compared to heat stress treatment+water treatment group,[6],no large difference
same,expression of SLHsfA2 compared to Mock (water),[2],no difference in expression
same,increase in seed fertility,"[7]; Val 5 mM & PAA 10 μM, heat treatment",≥ 20%
same,fertile seed weight compared to water treatment (in words),[7]; heat treatment,neither the treatment with Val alone nor the treatment with PAA alone showed significant differences
same,seed fertility compared to water treatment (in words),[7]; heat treatment,increased the seed fertility
same,total seed weight compared to water treatment (in words),[7]; heat treatment,neither the treatment with Val alone nor the treatment with PAA alone showed significant differences
same,"Fertile seed weight, relative value to heat treatment + water treatment group",[7],105.6%
same,"Fertility (seed fertility), relative value to heat treatment + water treatment group",[7],110.8%
same,"Total seed weight, relative value to heat treatment + water treatment group",[7],101.8%
"CC(C)[C@H](N)C(=O)O [Val, L-valine]",expression of SLAPX compared to Mock (water),[1],no difference in expression
same,harvested fruit weight compared to water-sprayed heat stress group,[5],exceeded the water-sprayed group
same,number of tomato fruits compared to heat stress treatment+water treatment group,[6],no large difference
same,expression of SLHsfA2 compared to Mock (water),[2],no difference in expression
same,fertile seed weight compared to water treatment (in words),[7]; heat treatment,neither the treatment with Val alone nor the treatment with PAA alone showed significant differences
same,seed fertility compared to water treatment (in words),[7]; heat treatment,increased the seed fertility
same,total seed weight compared to water treatment (in words),[7]; heat treatment,neither the treatment with Val alone nor the treatment with PAA alone showed significant differences
same,"Fertile seed weight, relative value to heat treatment + water treatment group",[7],98.7%
same,"Fertility (seed fertility), relative value to heat treatment + water treatment group",[7],123.9%
same,"Total seed weight, relative value to heat treatment + water treatment group",[7],93.9%
same,induction of heat stress tolerance in plants,[8],function of inducing heat stress tolerance in plants
same,number of tomato fruits compared to heat stress treatment+water treatment group,[4],markedly increased
